In ChEMBL document CHEMBL1201862, “PubChem BioAssay data set” (2004):
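Five compound concentrations were applied to cells in 96-well plates for 48 hours; endpoints were derived by simple linear interpolation of the resulting dose-response curve. The concentration for 50% growth inhibition is given as GI50.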 The source made the active and inactive calls. No stated cut-off is given here; in the data, active = GI50 up to about 1.1 µM and inactive = higher.

Experiments:
Assay in all cases: NCI anticancer screen, dose series, 48 h
LXFL 529 = test system: LXFL 529
SK-MEL-28 = test system: SK-MEL-28
SK-MEL-2 = test system: SK-MEL-2
SNB-78 = test system: SNB-78
SN12C = test system: SN12C
A549 = test system: A549
TK-10 = test system: TK-10
RXF 393 = test system: RXF 393
SR = test system: SR
Malme-3M = test system: Malme-3M
ACHN = test system: ACHN
UO-31 = test system: UO-31
HCT-116 = test system: HCT-116
RXF 631 = test system: RXF 631
SF-539 = test system: SF-539
DLD-1 = test system: DLD-1
OVCAR-8 = test system: OVCAR-8
SNB-19 = test system: SNB-19
SNB-75 = test system: SNB-75
KM-20L2 = test system: KM-20L2
NCI-H23 = test system: NCI-H23
HCC 2998 = test system: HCC 2998
SK-OV-3 = test system: SK-OV-3
XF498 = test system: XF498
NCI-H226 = test system: NCI-H226
IGROV-1 = test system: IGROV-1
M19-MEL = test system: M19-MEL
HOP-92 = test system: HOP-92
HT-29 = test system: HT-29
UACC-257 = test system: UACC-257
U-251 = test system: U-251
LOX IMVI = test system: LOX IMVI
HL-60 = test system: HL-60
UACC-62 = test system: UACC-62
HCT-15 = test system: HCT-15
KM12 = test system: KM12
OVCAR-5 = test system: OVCAR-5
A498 = test system: A498
NCI-H460 = test system: NCI-H460
SF-268 = test system: SF-268
SW-620 = test system: SW-620
CCRF-CEM = test system: CCRF-CEM
786-0 = test system: 786-0
EKVX = test system: EKVX
SF-295 = test system: SF-295
K562 = test system: K562
CAKI-1 = test system: CAKI-1
SK-MEL-5 = test system: SK-MEL-5
NCI-H522 = test system: NCI-H522
DMS-273 = test system: DMS-273
HOP-62 = test system: HOP-62
HOP-18 = test system: HOP-18
M14 = test system: M14
DMS-114 = test system: DMS-114
OVCAR-4 = test system: OVCAR-4
MOLT-4 = test system: MOLT-4
OVCAR-3 = test system: OVCAR-3
COLO 205 = test system: COLO 205
RPMI-8226 = test system: RPMI-8226

[O-][Cl+3]([O-])([O-])O.c1ccc(/N=c2\nc(N3CCOCC3)ss2)cc1
GI50 (LXFL 529): 12.2 µM (inactive)
GI50 (SK-MEL-28): 17.2 µM (inactive)
GI50 (SK-MEL-2): 17.9 µM (inactive)
GI50 (SNB-78): 22 µM (inactive)
GI50 (SN12C): 15.1 µM (inactive)
GI50 (A549): 33.4 µM (inactive)
GI50 (TK-10): 46.5 µM (inactive)
GI50 (RXF 393): 17.3 µM (inactive)
GI50 (SR): 16.6 µM (inactive)
GI50 (Malme-3M): 14.8 µM (inactive)
GI50 (ACHN): 16.5 µM (inactive)
GI50 (UO-31): 28.6 µM (inactive)
GI50 (HCT-116): 14.6 µM (inactive)
GI50 (RXF 631): 17.4 µM (inactive)
GI50 (SF-539): 18.3 µM (inactive)
GI50 (DLD-1): 14.6 µM (inactive)
GI50 (OVCAR-8): 15 µM (inactive)
GI50 (SNB-19): 30.5 µM (inactive)
GI50 (SNB-75): 19.9 µM (inactive)
GI50 (KM-20L2): 16.5 µM (inactive)
GI50 (NCI-H23): 29.5 µM (inactive)
GI50 (HCC 2998): 21.1 µM (inactive)
GI50 (SK-OV-3): > 100 µM (inactive)
GI50 (XF498): 17.9 µM (inactive)
GI50 (NCI-H226): 61.1 µM (inactive)
GI50 (IGROV-1): 20.1 µM (inactive)
GI50 (M19-MEL): 18 µM (inactive)
GI50 (HOP-92): 21.9 µM (inactive)
GI50 (HT-29): 20 µM (inactive)
GI50 (UACC-257): 15.8 µM (inactive)
GI50 (U-251): 15.2 µM (inactive)
GI50 (LOX IMVI): 16 µM (inactive)
GI50 (HL-60): 14.6 µM (inactive)
GI50 (UACC-62): 13.8 µM (inactive)
GI50 (HCT-15): 15.5 µM
GI50 (KM12): 17.2 µM (inactive)
GI50 (OVCAR-5): 28.9 µM (inactive)
GI50 (A498): 27.7 µM (inactive)
GI50 (NCI-H460): 17.6 µM (inactive)
GI50 (SF-268): 16 µM (inactive)
GI50 (SW-620): 10.2 µM (inactive)
GI50 (CCRF-CEM): 0.016 µM (active)
GI50 (786-0): 16.4 µM (inactive)
GI50 (EKVX): 21 µM (inactive)
GI50 (SF-295): 18.7 µM (inactive)
GI50 (K562): 16.5 µM (inactive)
GI50 (CAKI-1): 20.2 µM (inactive)
GI50 (SK-MEL-5): 34.2 µM (inactive)
GI50 (NCI-H522): 12.7 µM (inactive)
GI50 (DMS-273): 17.4 µM (inactive)
GI50 (HOP-62): 41.3 µM (inactive)
GI50 (HOP-18): > 100 µM (inactive)
GI50 (M14): 14.7 µM (inactive)
GI50 (DMS-114): 14.6 µM (inactive)
GI50 (OVCAR-4): 15.7 µM (inactive)
GI50 (MOLT-4): 12.3 µM (inactive)

CC(=O)CC(=O)Nc1ccc(OS(N)(=O)=O)cc1
GI50 (LXFL 529): > 100 µM (inactive)
GI50 (SK-MEL-28): > 100 µM (inactive)
GI50 (SK-MEL-2): > 100 µM (inactive)
GI50 (SNB-78): > 100 µM (inactive)
GI50 (SN12C): > 100 µM (inactive)
GI50 (A549): > 100 µM (inactive)
GI50 (TK-10): > 100 µM (inactive)
GI50 (OVCAR-3): > 100 µM (inactive)
GI50 (RXF 393): > 100 µM (inactive)
GI50 (SR): > 100 µM (inactive)
GI50 (Malme-3M): > 100 µM (inactive)
GI50 (ACHN): > 100 µM (inactive)
GI50 (UO-31): > 100 µM (inactive)
GI50 (HCT-116): > 100 µM (inactive)
GI50 (RXF 631): > 100 µM (inactive)
GI50 (SF-539): > 100 µM (inactive)
GI50 (DLD-1): > 100 µM (inactive)
GI50 (OVCAR-8): > 100 µM (inactive)
GI50 (SNB-19): > 100 µM (inactive)
GI50 (COLO 205): > 100 µM (inactive)
GI50 (SNB-75): > 100 µM (inactive)
GI50 (RPMI-8226): > 100 µM (inactive)
GI50 (KM-20L2): > 100 µM (inactive)
GI50 (NCI-H23): > 100 µM (inactive)
GI50 (HCC 2998): > 100 µM (inactive)
GI50 (SK-OV-3): > 100 µM (inactive)
GI50 (XF498): > 100 µM (inactive)
GI50 (NCI-H226): > 100 µM (inactive)
GI50 (IGROV-1): > 100 µM (inactive)
GI50 (M19-MEL): > 100 µM (inactive)
GI50 (HOP-92): > 100 µM (inactive)
GI50 (HT-29): > 100 µM (inactive)
GI50 (UACC-257): > 100 µM (inactive)
GI50 (U-251): > 100 µM (inactive)
GI50 (HL-60): > 100 µM (inactive)
GI50 (UACC-62): > 100 µM (inactive)
GI50 (HCT-15): > 100 µM
GI50 (KM12): > 100 µM (inactive)
GI50 (OVCAR-5): > 100 µM (inactive)
GI50 (A498): > 100 µM (inactive)
GI50 (NCI-H460): > 100 µM (inactive)
GI50 (SF-268): > 100 µM (inactive)
GI50 (SW-620): > 100 µM (inactive)
GI50 (CCRF-CEM): > 100 µM (inactive)
GI50 (786-0): > 100 µM (inactive)
GI50 (EKVX): > 100 µM (inactive)
GI50 (SF-295): > 100 µM (inactive)
GI50 (K562): > 100 µM (inactive)
GI50 (CAKI-1): > 100 µM (inactive)
GI50 (SK-MEL-5): > 100 µM (inactive)
GI50 (NCI-H522): > 100 µM (inactive)
GI50 (DMS-273): > 100 µM (inactive)
GI50 (HOP-62): > 100 µM (inactive)
GI50 (HOP-18): > 100 µM (inactive)
GI50 (M14): > 100 µM (inactive)
GI50 (DMS-114): > 100 µM (inactive)
GI50 (OVCAR-4): > 100 µM (inactive)
GI50 (MOLT-4): > 100 µM (inactive)
